Consider seven compounds from ChEMBL document CHEMBL1955734, “JFCR39, a panel of 39 human cancer cell lines, and its application in the discovery and development of anticancer drugs” (Bioorg Med Chem, 2012).

The target of test [1] is Telomerase reverse transcriptase (Homo sapiens, UniProt O14746). The test is described as follows: Inhibition of telomerase.
The test system of the next test is A549. Description: Growth inhibition of human A549 cells. Format: functional, cell-based.
The nature of test [2]: Growth inhibition of human BSY1 cells. Format: functional, cell-based. As to conditions: BSY-1.
Another test concerns NCI-H226. Description: Growth inhibition of human NCI-H226 cells. Type of test: functional, cell-based.
The subject of a further test is SF-268. Description: Growth inhibition of human SF268 cells. Type of test: functional, cell-based.
The test system of the next test is MDA-MB-231. Description: Growth inhibition of human MDA-MB-231 cells. Format: functional, cell-based.
The test system of the next test is OVCAR-5. The test is described as follows: Growth inhibition of human OVCAR5 cells. Type of test: functional, cell-based.
The subject of another test is OVCAR-3. Description: Growth inhibition of human OVCAR3 cells. Format: functional, cell-based.
For a further test, the system named is HCT-15. Description: Growth inhibition of human HCT15 cells. Type of test: functional, cell-based.
The subject of the next test is MKN-74. Description: Growth inhibition of human MKN74 cells. Format: functional, cell-based.
Another test relates to OVCAR-8. The test is described as follows: Growth inhibition of human OVCAR8 cells. Format: functional, cell-based.
The next test concerns SNB-78. The test is described as follows: Growth inhibition of human SNB78 cells. Type of test: functional, cell-based.
The subject of another test is MKN-28. Description: Growth inhibition of human MKN28 cells. Format: functional, cell-based.
The subject of another test is HCC 2998. The test is described as follows: Growth inhibition of human HCC2998 cells. Type of test: functional, cell-based.
A further test relates to DU-145. Description: Growth inhibition of human DU145 cells. Type of test: functional, cell-based.
A short description of test [3]: Growth inhibition of human RXF631L cells. Type of test: functional. The following applies: RXF 631.
The test system of a further test is SF-295. The test is described as follows: Growth inhibition of human SF295 cells. Type of test: functional, cell-based.
In the next test the test system is DMS-114. The test is described as follows: Growth inhibition of human DMS114 cells. Format: functional, cell-based.
The test system of a further test is HT-29. The test is described as follows: Growth inhibition of human HT-29 cells. Type of test: functional, cell-based.
The test system of the next test is KM12. The test is described as follows: Growth inhibition of human KM12 cells. Type of test: functional, cell-based.
A short description of test [4]: Growth inhibition of human NCI-H483 cells. Type of test: functional, cell-based.
Test [5] can be described thus: Growth inhibition of human HBC5 cells. Format: functional, cell-based.
The next test has as its system MCF7. The test is described as follows: Growth inhibition of human MCF7 cells. Format: functional, cell-based.
Another test deals with PC-3. Description: Growth inhibition of human PC3 cells. Type of test: functional, cell-based.
In the next test the test system is SK-OV-3. The test is described as follows: Growth inhibition of human SKOV3 cells. Type of test: functional, cell-based.
A further test has as its system MKN-45. Description: Growth inhibition of human MKN45 cells. Format: functional, cell-based.
Another test has as its system MKN-7. The test is described as follows: Growth inhibition of human MKN7 cells. Type of test: functional, cell-based.
A further test deals with HCT-116. The test is described as follows: Growth inhibition of human HCT116 cells. Type of test: functional, cell-based.
The subject of a further test is SF-539. The test is described as follows: Growth inhibition of human SF539 cells. Type of test: functional, cell-based.
Another test deals with OVCAR-4. The test is described as follows: Growth inhibition of human OVCAR4 cells. Type of test: functional, cell-based.
A further test concerns SNB-75. The test is described as follows: Growth inhibition of human SNB75 cells. Type of test: functional, cell-based.
The test system of another test is DMS-273. Description: Growth inhibition of human DMS273 cells. Type of test: functional, cell-based.
The next test relates to U-251. The test is described as follows: Growth inhibition of human U251 cells. Type of test: functional, cell-based.
The nature of test [6]: Growth inhibition of human MKN1 cells. The following applies: MKN-1. Type of test: functional, cell-based.
For another test, the system named is NCI-H522. The test is described as follows: Growth inhibition of human NCI-H522 cells. Type of test: functional, cell-based.
A further test deals with NCI-H23. Description: Growth inhibition of human NCI-H23 cells. Type of test: functional, cell-based.
Another test has as its system St-4. Description: Growth inhibition of human St-4 cells. Type of test: functional, cell-based.
A further test concerns LOX IMVI. The test is described as follows: Growth inhibition of human LOXIMVI cells. Type of test: functional, cell-based.
A further test concerns ACHN. The test is described as follows: Growth inhibition of human ACHN cells. Format: functional, cell-based.
Test [7] in a line: Growth inhibition of human HBC4 cells. Type of test: functional, cell-based.

Structures are written as SMILES.

A word on the IC50: it is the point on the concentration scale where inhibition reaches its midpoint. By GI50 is commonly meant the concentration at which growth is held to half of that of the control. A high value points to lower sensitivity of the cells.

Chain of Telomerase reverse transcriptase (O14746 whole entry): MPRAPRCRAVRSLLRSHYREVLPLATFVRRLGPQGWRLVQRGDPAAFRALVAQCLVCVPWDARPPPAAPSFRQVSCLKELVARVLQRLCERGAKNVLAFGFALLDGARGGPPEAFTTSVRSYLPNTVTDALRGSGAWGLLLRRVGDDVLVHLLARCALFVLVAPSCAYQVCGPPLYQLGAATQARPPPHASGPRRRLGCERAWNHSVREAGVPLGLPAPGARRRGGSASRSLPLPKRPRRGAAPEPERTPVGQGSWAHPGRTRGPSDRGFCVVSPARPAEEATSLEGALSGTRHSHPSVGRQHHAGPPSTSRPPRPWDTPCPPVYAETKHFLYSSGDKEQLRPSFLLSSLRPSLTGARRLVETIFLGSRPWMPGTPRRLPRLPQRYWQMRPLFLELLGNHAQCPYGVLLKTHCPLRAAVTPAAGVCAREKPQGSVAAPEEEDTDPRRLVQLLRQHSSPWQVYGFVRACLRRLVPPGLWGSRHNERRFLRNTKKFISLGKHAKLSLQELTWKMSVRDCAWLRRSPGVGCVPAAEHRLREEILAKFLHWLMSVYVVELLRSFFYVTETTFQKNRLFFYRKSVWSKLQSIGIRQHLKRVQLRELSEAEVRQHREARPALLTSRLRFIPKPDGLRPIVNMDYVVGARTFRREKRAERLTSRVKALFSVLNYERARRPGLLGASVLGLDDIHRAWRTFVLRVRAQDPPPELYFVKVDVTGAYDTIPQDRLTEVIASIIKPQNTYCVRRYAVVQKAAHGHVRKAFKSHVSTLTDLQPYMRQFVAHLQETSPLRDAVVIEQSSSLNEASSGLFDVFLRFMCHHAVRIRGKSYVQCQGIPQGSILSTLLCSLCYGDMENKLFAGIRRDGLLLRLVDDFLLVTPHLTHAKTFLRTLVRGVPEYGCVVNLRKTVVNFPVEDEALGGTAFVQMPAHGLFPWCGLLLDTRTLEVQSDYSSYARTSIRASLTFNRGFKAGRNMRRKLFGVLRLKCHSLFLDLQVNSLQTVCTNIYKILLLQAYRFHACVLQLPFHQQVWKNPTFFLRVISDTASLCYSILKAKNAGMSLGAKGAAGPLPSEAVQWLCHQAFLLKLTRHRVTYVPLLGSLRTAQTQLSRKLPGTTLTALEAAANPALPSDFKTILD

As to `CCn1c(=O)/c(=C2\Sc3ccccc3N2C)s/c1=C\c1cccc[n+]1CC`, it took 5000 nM to reach half-maximal inhibition in test [1] (IC50).
For `COc1ccc2cc3[n+](cc2c1OC)CCc1cc2c(cc1-3)OCO2` [BERBERINE], the IC50 in [1] stood at 37000 nM.
For the compound `CS(=O)(=O)N1CCN(Cc2cc3nc(-c4cccc5[nH]ncc45)nc(N4CCOCC4)c3s2)CC1` [PICTILISIB], the GI50 is 708 nM in the test with A549; 126 nM in test [2]; 617 nM in the test with NCI-H226; 4070 nM in the test on SF-268; 3470 nM in the test on MDA-MB-231; 550 nM in the test on OVCAR-5. In addition, the GI50 in the test on OVCAR-3 is 195 nM; in the test with HCT-15, 759 nM; in the test on MKN-74, 955 nM; in the test on OVCAR-8, 1860 nM; in the test on SNB-78, 302 nM; with MKN-28, 3020 nM. The GI50 with HCC 2998 was 513 nM; with DU-145 it was 1410 nM; in [3], 132 nM; in the test on SF-295, 427 nM; with DMS-114, 1200 nM; with HT-29, 501 nM. Moreover, the GI50 with KM12 is 1740 nM; in test [4] it was 275 nM; in [5], 251 nM; with MCF7, 46.8 nM; in the test with PC-3, 219 nM; in the test with SK-OV-3, 302 nM. In addition, the GI50 with MKN-45 was 282 nM; with MKN-7, 316 nM; with HCT-116, 1350 nM; in the test on SF-539, 316 nM; in the test with OVCAR-4 it was 1740 nM; with SNB-75, 79.4 nM. For the same compound, the GI50 was 372 nM in the test with DMS-273; 3160 nM in the test with U-251; 83.2 nM in [6]; 263 nM with NCI-H522; 1860 nM in the test on NCI-H23; 2750 nM in the test with St-4. Moreover, the figures for the GI50 (with LOX IMVI; in the test on ACHN; in test [7]) were 513 nM, 851 nM and 933 nM, respectively.
In [1], `CCn1c(=O)/c(=C2\Sc3ccccc3N2C)s/c1=C\c1scc(C)[n+]1CC` gave an IC50 of 2000 nM.
Turning to `Cn1cc(NC(=O)CC[S+](C)C)cc1-c1nc2cc(C(=O)Nc3ccc(N(CCCl)CCCl)cc3)ccc2[nH]1`, the IC50 (with A549; in test [2]; with NCI-H226; in the test with SF-268; with MDA-MB-231; in the test on OVCAR-5) was 710 nM each time. Moreover, the IC50 with OVCAR-3, in the test on HCT-15, with MKN-74, in the test with OVCAR-8, in the test with SNB-78 and in the test with MKN-28 was 710 nM each time. In addition, the IC50 (with HCC 2998; with DU-145; in test [3]; with SF-295; in the test with DMS-114; with HT-29) was 710 nM throughout. In addition, the IC50 (in the test with KM12; in test [4]; in test [5]; in the test on MCF7; with PC-3; in the test on SK-OV-3) was 710 nM in each case. The IC50 with MKN-45, in the test with MKN-7, in the test with HCT-116, with SF-539, with OVCAR-4 and with SNB-75 was 710 nM throughout. Also, the IC50 (in the test with DMS-273; in the test with U-251; in test [6]; with NCI-H522; in the test on NCI-H23; in the test on St-4) was 710 nM throughout. Further, the IC50 (in the test on LOX IMVI; in the test with ACHN; in test [7]) was 710 nM each time.
Regarding `FC(F)c1nc2ccccc2n1-c1nc(N2CCOCC2)nc(N2CCOCC2)n1` [ZSTK-474], the GI50 in the test on A549 is 676 nM; in test [2], 275 nM; with NCI-H226 it was 407 nM; with SF-268, 1480 nM; in the test on MDA-MB-231, 813 nM; in the test with OVCAR-5, 1200 nM. In addition, the GI50 was 389 nM in the test with OVCAR-3; 525 nM in the test on HCT-15; 1020 nM with MKN-74; 1260 nM in the test with OVCAR-8; 355 nM in the test with SNB-78; 1950 nM with MKN-28. Moreover, the GI50 with HCC 2998 was 851 nM; in the test on DU-145, 724 nM; in test [3] it was 316 nM; in the test on SF-295, 347 nM; in the test with DMS-114, 479 nM; in the test on HT-29, 646 nM. The GI50 in the test on KM12 was 2240 nM; in test [4] it was 372 nM; in test [5] it was 170 nM; with MCF7, 182 nM; with PC-3 it was 145 nM; in the test on SK-OV-3, 398 nM. The 50% growth inhibitory concentration (GI50) is 245 nM in the test on MKN-45; 575 nM with MKN-7; 1380 nM with HCT-116; 479 nM in the test on SF-539; 1620 nM with OVCAR-4; 155 nM with SNB-75. For the same compound, the GI50 is 339 nM in the test with DMS-273; 1820 nM in the test on U-251; 245 nM in test [6]; 263 nM in the test with NCI-H522; 1050 nM in the test with NCI-H23; 1910 nM in the test with St-4. Further, the GI50 in the test with LOX IMVI is 288 nM; in the test with ACHN it was 603 nM; in test [7], 912 nM.
Consider `Cn1c(=O)n(-c2ccc(C(C)(C)C#N)cc2)c2c3cc(-c4cnc5ccccc5c4)ccc3ncc21` [DACTOLISIB], for which the GI50 with A549 was 8.51 nM; in test [2], 3.31 nM; with NCI-H226, 3.63 nM; in the test on SF-268, 12 nM; in the test on MDA-MB-231, 8.13 nM; with OVCAR-5 it was 26.9 nM. Further, the GI50 with OVCAR-3 was 6.76 nM; with HCT-15 it was 9.33 nM; in the test on MKN-74 it was 38 nM; in the test with OVCAR-8 it was 14.4 nM; in the test with SNB-78 it was 2.24 nM; with MKN-28, 85.1 nM. Besides, the GI50 is 8.91 nM in the test on HCC 2998; 6.92 nM in the test on DU-145; 6.17 nM in [3]; 4.9 nM in the test with SF-295; 4.07 nM with DMS-114; 17.8 nM in the test with HT-29. Also, the GI50 is 28.8 nM with KM12; 7.76 nM in test [4]; 13.5 nM in [5]; 6.92 nM with MCF7; 2.19 nM in the test on PC-3; 3.89 nM with SK-OV-3. Further, the GI50 is 4.57 nM in the test on MKN-45; 20.9 nM with MKN-7; 24.6 nM in the test with HCT-116; 2.57 nM with SF-539; 2.63 nM with OVCAR-4; 2.63 nM in the test with SNB-75. Further, the GI50 in the test on DMS-273 was 15.8 nM; in the test with U-251 it was 21.9 nM; in test [6] it was 3.89 nM; in the test on NCI-H522, 3.55 nM; with NCI-H23, 22.9 nM; in the test with St-4 it was 33.9 nM. Also, the GI50 in the test with LOX IMVI was 2.19 nM; in the test on ACHN, 11.2 nM; in [7] it was 2.46 nM.
